Source: patent EP2891491A1, “Use of (r)-phenylpiracetam for the treatment of sleep disorders” (Merz Pharma GmbH & Co. KGaA, priority 2014, dated 2015)

Legend:
rats = assay: motivation tests: progressive ratio task, cost-benefit choice test, consumption test; type: in vivo
Experimental: EXAMPLE 6: Effect of (R)-phenylpiracetam in motivation tests - Figs. 5, 6, 7, 8
Methylphenidate purchased from Sigma (Taufkirchen, Germany) was dissolved in distilled water fresh for each test day. D-Amphetamine purchased from Sigma (Taufkirchen, Germany) was dissolved in 0.9% sterile NaCl solution fresh for each test day. (R)-Phenylpiracetam was dissolved in distilled water fresh for each test day.
One hundred and three male Sprague-Dawley rats (Janvier, Le Genest-St-Isle, France) weighing 225-250 g on arrival were used.
The animals were kept under standard laboratory conditions in groups of up to 4 per care with ad libitum access to water. Standard diet for rodents (Altromin) was available to the animals at 15 g per animal/day
For each test described below, two independent experiments were performed using an identical protocol. After continuous reinforcement training (CRF) training (see below) all animals were assigned to treatment groups, such that performance across all the groups was similar. The treatment groups were evenly distributed throughout the caging system.
In experiment 1 and 2 the following protocols were used:
Overview: Three tests were performed in a consecutive manner on subsequent days. On day 1-2, animals were habituated individually to Skinner boxes in two sessions, one per day, for 30 min. Animals received "free" food pellets at a random time (one pellet per minute on average). On days 3-8 animals were trained in Skinner boxes on a continuous reinforcement schedule (one pellet per lever press). On days 9-10 they were tested in the progressive ratio test (Test 1) off-drug, on days 11-12 on-drug. On day 13, a choice test (Test 2) was performed on-drug, on day 14, a consumption test (Test 3) was performed on-drug. Below, tests are described in detail.
Behavioral testing was conducted in 12 operant test chambers (Med Associates, St. Albans, USA). Each chamber was equipped with a retractable lever, a food dispenser with receptacle, an overhead house light and two stimulus lights, one above the lever and the other above the food receptacle. An infrared photocell beam detected nose pokes into the food receptacle. The apparatus was controlled by a computer system (SmartControl®-Interface and MedPC-software, Med Associates, St. Albans, USA). The light above the food receptacle indicated the delivery of a food pellet in the receptacle. Rats were first habituated to the operant boxes for two sessions (30 min each) on two consecutive days. Thereafter, animals were trained for six sessions on the CRF schedule for 30 min. Followed by 4 sessions (two session off-drug followed by two sessions on-drug) of an increasing fixed ratio (FR) schedule in steps of 5, with 3 repetitions of each step (i.e. 1-1-1; 5-5-5; 10-10-10; ...). When the required FR value of each trial was achieved the light above the food receptacle indicated the delivery of a single food pellet (45 mg, Bioserve, USA). The light remained on until the rat poked its nose in the receptacle. Lever presses while the light was on were counted as perseverative lever presses; they were counted but had no programmed consequences. […] For each session, the value of the last completed ratio (breaking point) was recorded as well as the amount of received rewards, the perseverative lever presses, the duration of the session and the latency to respond. Animals of all treatment groups received respective vehicle/drug infusions 30 min pre-test on the final two sessions involving testing under a PR schedule.
In this task the rats had the choice between working for their preferred food (Bioserve pellets) by pressing the lever on a PR schedule as described above or obtaining lab chow being freely available in a dish (about 15 g) within the operant chamber. The food receptacle and the lever were positioned on the same wall of the operant chamber, the dish containing the lab chow was situated in a corner on the opposite side of the operant chamber. […]

[1] = tested on: subjects with Parkinson's Disease; assay: clinical study of EDS in Parkinson patients, Epworth Sleepiness Scale; type: in vivo, humans; conditions: 50 mg bid for 4 weeks, oral, adjunct to L-Dopa
Experimental: In a prospective, randomized, double-blind, placebo-controlled, parallel group, multicenter study the tolerability, safety and efficacy of (R)-Phenylpiracetam after oral administration adjunct to L-Dopa treatment is confirmed. After a screening period of one week 36 subjects with Parkinson's Disease receive 50 mg (R)-Phenylpiracetam or placebo bid at 8.00 am and 3.00 pm for 4 weeks. A safety follow-up is performed 1 week after the double-blind treatment period. Visits take place 1 week before randomization (V1, day -7), at baseline (V2, day 1), at Week 2 (V3) and Week 4 (V4). A safety follow-up (V5) is performed 1 week after the last intake of study medication. An assessment of excessive daily sleepiness using the Epworth Sleepiness Scale [ESS] takes place at screening, baseline, week 2 and week 4.
The questionnaire asks the subject to rate his or her probability of falling asleep on a scale of increasing probability from 0 to 3 for 8 different situations that most people engage in during their daily lives, though not necessarily every day (Johns et al. J Neurol Neurosurg Psychiatry. 2005;76(12):1636). The scores for the 8 questions are added together to obtain a single number. […]
The absolute change of ESS from day 1 to day 14 and 28 is analyzed.

[2] = in vivo; cited from earlier work

Q: What does the source list for `NC(=O)CN1C[C@@H](c2ccccc2)CC1=O` [(R)-phenylpiracetam]?
A: consumption of freely available normal food (rats; cost-benefit choice test): does not increase; motivation, i.e. the work load animals are willing to perform to obtain more rewarding food (rats; drug 30 min pre-test): increases motivation; effect on motivation compared with methylphenidate and amphetamine (rats; progressive ratio and cost benefit tests): much stronger than that of methylphenidate and amphetamine; improvement of ESS (absolute change from day 1 to day 14 and 28) [1]: at least 3 points; memory function in the passive avoidance test [2]: enhanced memory function significantly better compared to (S)-phenylpiracetam
